Experimental data reported in patent US20080113969A1, “COMBINATION THERAPY FOR THE TREATMENT OF PAIN” (priority 2006, published 2008).
“Also recorded” adds a separate entry of the source.

Columns and labels:
[1] = test system: postoperative pain model in adult male rats; assay: Postincisional hypersensitivity model (paw incision, withdrawal threshold to von Frey filaments); type: in vivo, rat; conditions: intrathecal (i.t.), 24 h after paw incision
Protocol: Animal preparation: Following Animal Care and Use Committee approval, an intrathecal (i.t.) catheter with tip in the lumbar space is inserted as previously described in adult male rats weighing 250 g (Yaksh and Rudy, Physiol Behav. 1976, 7, 1032-1036). One week following the insertion of the i.t. catheter, paw incision surgery is performed as previously described (Brennan et al., Pain 1996, 64, 493-501). Briefly, animals are anesthetized with halothane, and a 1-cm long incision is made in the plantar aspect of the left hind paw starting 0.5 cm from the edge of the heel toward the toe after sterile preparation with 70% ethanol. The plantaris muscle is elevated and incised longitudinally. The wound is closed with 2 mattress sutures of 5.0 silk. Subsequently, withdrawal threshold to von Frey filaments is determined one day after surgery (Chaplan et al., J. Neurosci. Methods, 1994, 53, 55-63). For all testing but pilot dose ranging studies, investigators are blinded to study drug administration. A cut off value of 22 g is used. […]
Single drug injection: For single drug administration, a volume containing 5 μL drug is used, followed by 10 μL of saline. […] Dose response curves are first constructed, and ED40 values for single drugs are then determined at the time of peak effect.
Drug interaction: For the combination of T-62 with morphine and NBQX, two injections are performed since the time of peak effect for morphine and NBQX is 30 min earlier than that of T-62 (T-62 is injected 30 min before drug injections). Paw withdrawal thresholds are determined before surgery, before drug injection, and 30, 60, 90, 120, 150, 180, and 210 min after the second drug injection. […] The dose response curves are then constructed for the combined drugs, and the ED40 values of the combined drugs are calculated at the time point of peak effect. […]
Data analysis: Data are presented as mean ±S.E. Withdrawal threshold data are analyzed by two-way analysis of variance followed by Fisher's LSD test. […] Isobolograms are statistically analyzed by student T test.

[2] = test system: inflammatory and neuropathic pain; conditions: previously demonstrated (Li et al. 2003, Li et al. 2002, Pan et al. 2001); cited from earlier work
[3] = test system: neuropathic pain model in male Sprague-Dawley rats; assay: Neuropathic pain model (Chung model, spinal nerve ligation, von Frey withdrawal threshold); type: in vivo, rat; conditions: Chung model of chronic neuropathic pain, FIG. 8
Source text: Spinal Nerve Ligation: After Animal Care and Use Committee approval, male Sprague-Dawley rats (Harlan, Indianapolis, Ind., USA) weighing 180-200 g undergo anesthesia as previously described by Kim and Chung (Pain 1992, 50, 355-363). Briefly, under general anesthesia with inhalational halothane, the left L5 and L6 spinal nerves are identified through a small laminotomy and tightly ligated. Approximately one week later, an intrathecal catheter is placed under general anesthesia by insertion under direct vision of a polyethylene catheter through a small slit in the dura at the cisterna magnum, and advanced 8.5 cm such that the catheter tip resides in the lower lumbar intrathecal space. Animals are studied approximately one week later. Ligation of the lumbar spinal nerves results in a primarily unilateral increase in the sensitivity to light touch on the operated side. Sensitivity is assessed via application of calibrated von Frey filaments. The withdrawal threshold is determined using an up down method as previously described by Chaplan et al. (J. Neurosci. Methods 1994, 53, 55-63).
Experimental Design: Animals receive, at least 4 weeks after spinal nerve ligation surgery, and at least 1 week after intrathecal catheter insertion, single injections of vehicle (β-cyclodextrin) or the drug substance, using a randomized and blinded protocol. Withdrawal thresholds are determined at intervals for up to 20 hr after injection.

SMILES | anti-hypersensitivity effect (mechanical hypersensitivity) [1] | effect on inflammatory and neuropathic pain [2] | anti-allodynic effect [3] | relative potency among the three enhancers [3]
Nc1sc2c(c1C(=O)c1ccc(Cl)cc1)CCCC2 [T-62, (2-amino-4,5,6,7-tetrahydrobenzo[b]thiophen-3-yl)(4-chlorophenyl)methanone] | reduced mechanical hypersensitivity in a time dependent manner; also recorded: modest effect | reduce inflammatory and neuropathic pain | dose-dependent anti-allodynic effects | 
Nc1sc2c(c1C(=O)c1ccccc1)CCS2 [formula (Ib)] |  |  | dose-dependent anti-allodynic effects | 
Nc1sc2c(c1C(=O)c1cccc3ccccc13)CCC2 [formula (Ic)] |  |  | dose-dependent anti-allodynic effects | most potent enhancer of the three agents
CN1CC[C@]23c4c5ccc(O)c4O[C@H]2[C@@H](O)C=C[C@H]3[C@H]1C5 [Morphine, morphine, reference compound] | reduces mechanical hypersensitivity in a time and dose dependent manner |  |  | 
NS(=O)(=O)c1cccc2c1c([N+](=O)[O-])cc1nc(O)c(O)nc12 [NBQX, 2,3-dihydroxy-6-nitro-7-sulfamoylbenzo(f)quinoxaline, reference compound] | reduces the mechanical hypersensitivity in a time and dose dependent manner |  |  | 
